What all share (format): cell-based
In one test the target is T1, GSPT1 (Homo sapiens, UniProt P15170).
T1 construct: immunoblot of GSPT1 and tubulin expressed in RS4:11 cells; endogenous in cells; host or cells: RS4;11 cells
Put plainly: Immunoblot of GSPT1 protein level in RS4;11 cells. The note with it: 16 hours, immunoblot, read-out: concentration required to reduce GSPT1 by 50% (DC50). How it is done: RS4;11 cells were treated with compounds at indicated concentrations for 16 hours. […] The concentrations required to reduce GSPT1 by 50% (DC50) were below 2 nM for compound JA-189 and 10 nM JA213.
(§1) HEL, RS4;11, MV4;11, Kasumi-1 and other cells were cultured at 37° C. with 5% CO2 in RPMI 1640 or DMEM Medium supplemented with 10% fetal bovine serum. Cells were authenticated using the short tandem repeat (STR) assays. Mycoplasma test results were negative.
(§2) Rabbit anti-JAK1 antibody (3344S), anti-JAK2 antibody (3230S), anti-JAK3 antibody (8827S), anti-TYK2 antibody (14193S), anti-FLT3 antibody (3462S), anti-RET antibody (14556S), anti-phospho-STAT3 (Tyr705) antibody (9145S) and anti-phospho-STAT5 (Tyr694) antibody (4322S) were purchased from Cell Signaling Technology. Rabbit anti-GSPT1 antibody (ab126090) was purchased from Abcam. HRP-conjugated anti-α-tubulin antibody was produced in house. Media and other cell culture reagents were purchased from Thermo Fisher. The CellTiter-Glo Luminescent Assay kit was purchased from Promega.
(§3) Cultured cells were washed with cold PBS once and lysed in cold RIPA buffer supplemented with protease inhibitors and phosphatase inhibitors (Beyotime Biotechnology). The solutions were then incubated at 4° C. for 30 minutes with gentle agitation to fully lyse cells. Cell lysates were centrifuged at 13,000 rpm for 10 minutes at 4° C. and pellets were discarded. Total protein concentrations in the lysates were determined by BCA assays (Beyotime Biotechnology). Cell lysates were mixed with Laemmli loading buffer to 1× and heated at 99° C. for 5 min. Proteins were resolved on SDS-PAGE and visualized by chemiluminescence. Images were taken by a ChemiDoc MP Imaging system (Bio-Rad). Protein bands were quantitated using the accompanied software provided by Bio-Rad.
(In general: Immunoblotting shows a protein as a band on a membrane.)

For the next test, the target named is T2, JAK1 (Homo sapiens, UniProt P23458).
T2 construct: immunoblot of JAK1/3 proteins expressed in RS4;11 cells; endogenous in cells; host or cells: RS4;11 cells
Nature of the test: Immunoblot of JAK1 protein level in RS4;11 cells. The note with it: 24 hours, immunoblot, read-out: concentration required to reduce JAK1 by 50% (DC50). As to the method:
RS4;11 cells were treated with compounds at indicated concentrations for 24 hours. […] The concentrations required to reduce JAK1 by 50% (DC50) were below 5 nM and 35 nM for compound JA-189 and JA213, respectively.
as §1, §2, §3

The subject of a further test is MOLM-13 cells. Put plainly: Cell viability assay (CellTiter-Glo) in MOLM-13 cells. To be noted: Homo sapiens, 72 h, MOLM-13, AML, 3 days. As to the method:
(§4) MV4;11, RS4;11, Kasumi-1, HEL and other cells were treated with NVP-BSK805, TG101209 or selected degraders for 3 days at indicated concentrations following a 3-fold serial dilution.
as §1
(§5) Cells were seeded at a density of 5000 cells per well in 96-well assay plates and treated with test compounds following a 8-point or 12-point 3-fold serial dilution. Three days later, cell viability was determined using the CellTiter-Glo assay kit according to the manufacturer's instructions. The dose-response curves were determined and IC50 values were calculated using the GraphPad Prism software following a nonlinear regression (least squares fit) method.
For orientation: In ATP-based viability assays light output follows the ATP content of the culture.

For another test, the system named is MEG-01 cells. Put plainly: Cell viability assay (CellTiter-Glo) in MEG-01 cells. To be noted: Homo sapiens, 72 h, MEG-01, CML, 3 days. How it is done:
as §4, §1, §5

The subject of the next test is WSU-DLCL2 cells. Put plainly: Cell viability assay (CellTiter-Glo) in WSU-DLCL2 cells. To be noted: Homo sapiens, WSUDLCL2, 72 h, WSU-DLCL2, DLBCL, 3 days. As to the method: as §4, §1, §5
A further test concerns SU-DHL-1 cells. Nature of the test: Cell viability assay (CellTiter-Glo) in SU-DHL-1 cells. To be noted: Homo sapiens, 72 h, SU-DHL-1, large cell lymphoma, 3 days. As to the method: as §4, §1, §5
Another test relates to MV4;11 cells. Put plainly: Cell viability assay (CellTiter-Glo) in MV4;11 cells. The note with it: Homo sapiens, 72 h; MV4;11, AML; cell viability, 3 days. As to the method:
as §4, §1, §5

The test system of a further test is NCI-H929 cells. Put plainly: Cell viability assay (CellTiter-Glo) in NCI-H929 cells. To be noted: Homo sapiens, 72 h, NCI-H929, Multiple Myeloma, 3 days. How it is done:
as §4, §1, §5

The next test deals with HL-60 cells. Put plainly: Cell viability assay (CellTiter-Glo) in HL-60 cells. The note with it: Homo sapiens, 72 h, HL-60, APL, 3 days. How it is done: as §4, §1, §5
In another test the test system is RS4;11 cells. Nature of the test: Cell viability assay (CellTiter-Glo) in RS4;11 cells. The note with it: Homo sapiens, 72 h; RS4;11 cells; cell viability, 3 days, CellTiter-Glo; read-out: IC50. A digest of the protocol:
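RS4;11 cells seeded at 5000 per well, exposed for 3 days to 8- or 12-point 3-fold serial dilutions. Viability read by CellTiter-Glo luminescence; IC50 fitted by nonlinear least-squares regression.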

Another test has as its system Jurkat cells. Nature of the test: Cell viability assay (CellTiter-Glo) in Jurkat cells. To be noted: Homo sapiens, 72 h, T-ALL, 3 days. As to the method:
as §4, §1, §5

For the next test, the system named is MOLT-4 cells. Put plainly: Cell viability assay (CellTiter-Glo) in MOLT-4 cells. To be noted: Homo sapiens, 72 h, MOLT-4, T-ALL, 3 days. As to the method: as §4, §1, §5
A further test deals with CCRF-CEM cells. Put plainly: Cell viability assay (CellTiter-Glo) in CCRF-CEM cells. To be noted: Homo sapiens, 72 h, T-ALL, 3 days. How it is done: as §4, §1, §5
The test system of a further test is Pfeiffer cells. Nature of the test: Cell viability assay (CellTiter-Glo) in Pfeiffer cells. The note with it: Homo sapiens, 72 h, DLBCL, 3 days. How it is done:
as §4, §1, §5

For the next test, the system named is MM.1S cells. Put plainly: Cell viability assay (CellTiter-Glo) in MM.1S cells. The note with it: Homo sapiens, MM1.S, 72 h, Multiple Myeloma, 3 days. How it is done:
as §4, §1, §5

A further test deals with AMO-1 cells. Put plainly: Cell viability assay (CellTiter-Glo) in AMO-1 cells. To be noted: Homo sapiens, AMO1, 72 h, AMO-1, Multiple Myeloma, 3 days. How it is done:
as §4, §1, §5

Another test concerns Kasumi-1 cells. Nature of the test: Cell viability assay (CellTiter-Glo) in Kasumi-1 cells. To be noted: Homo sapiens, 72 h; Kasumi-1, AML; cell viability, 3 days. How it is done: as §4, §1, §5
For a further test, the system named is NOMO-1 cells. Nature of the test: Cell viability assay (CellTiter-Glo) in NOMO-1 cells. The note with it: Homo sapiens, 72 h, NOMO-1, AML, 3 days. How it is done:
as §4, §1, §5

The subject of the next test is HEL cells. Nature of the test: Cell viability assay (CellTiter-Glo) in HEL cells. The note with it: Homo sapiens, 72 h, erythroleukemia, cell viability, 3 days. As to the method: as §4, §1, §5

One may read the IC50 as the concentration needed to halve the response being measured.

T1 sequence (P15170 whole entry): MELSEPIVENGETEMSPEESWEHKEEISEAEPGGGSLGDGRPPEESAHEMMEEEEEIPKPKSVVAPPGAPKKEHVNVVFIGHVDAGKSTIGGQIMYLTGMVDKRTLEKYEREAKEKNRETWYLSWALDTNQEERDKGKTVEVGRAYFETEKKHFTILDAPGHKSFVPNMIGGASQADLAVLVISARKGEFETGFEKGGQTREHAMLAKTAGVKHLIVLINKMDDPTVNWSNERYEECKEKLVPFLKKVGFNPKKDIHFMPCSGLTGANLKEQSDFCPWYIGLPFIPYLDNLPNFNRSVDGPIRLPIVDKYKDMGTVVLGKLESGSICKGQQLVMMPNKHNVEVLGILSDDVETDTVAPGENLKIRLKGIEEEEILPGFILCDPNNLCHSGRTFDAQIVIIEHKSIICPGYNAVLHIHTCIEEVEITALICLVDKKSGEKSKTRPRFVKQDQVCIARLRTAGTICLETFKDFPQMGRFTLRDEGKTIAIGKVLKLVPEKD
T2 sequence (P23458 whole entry): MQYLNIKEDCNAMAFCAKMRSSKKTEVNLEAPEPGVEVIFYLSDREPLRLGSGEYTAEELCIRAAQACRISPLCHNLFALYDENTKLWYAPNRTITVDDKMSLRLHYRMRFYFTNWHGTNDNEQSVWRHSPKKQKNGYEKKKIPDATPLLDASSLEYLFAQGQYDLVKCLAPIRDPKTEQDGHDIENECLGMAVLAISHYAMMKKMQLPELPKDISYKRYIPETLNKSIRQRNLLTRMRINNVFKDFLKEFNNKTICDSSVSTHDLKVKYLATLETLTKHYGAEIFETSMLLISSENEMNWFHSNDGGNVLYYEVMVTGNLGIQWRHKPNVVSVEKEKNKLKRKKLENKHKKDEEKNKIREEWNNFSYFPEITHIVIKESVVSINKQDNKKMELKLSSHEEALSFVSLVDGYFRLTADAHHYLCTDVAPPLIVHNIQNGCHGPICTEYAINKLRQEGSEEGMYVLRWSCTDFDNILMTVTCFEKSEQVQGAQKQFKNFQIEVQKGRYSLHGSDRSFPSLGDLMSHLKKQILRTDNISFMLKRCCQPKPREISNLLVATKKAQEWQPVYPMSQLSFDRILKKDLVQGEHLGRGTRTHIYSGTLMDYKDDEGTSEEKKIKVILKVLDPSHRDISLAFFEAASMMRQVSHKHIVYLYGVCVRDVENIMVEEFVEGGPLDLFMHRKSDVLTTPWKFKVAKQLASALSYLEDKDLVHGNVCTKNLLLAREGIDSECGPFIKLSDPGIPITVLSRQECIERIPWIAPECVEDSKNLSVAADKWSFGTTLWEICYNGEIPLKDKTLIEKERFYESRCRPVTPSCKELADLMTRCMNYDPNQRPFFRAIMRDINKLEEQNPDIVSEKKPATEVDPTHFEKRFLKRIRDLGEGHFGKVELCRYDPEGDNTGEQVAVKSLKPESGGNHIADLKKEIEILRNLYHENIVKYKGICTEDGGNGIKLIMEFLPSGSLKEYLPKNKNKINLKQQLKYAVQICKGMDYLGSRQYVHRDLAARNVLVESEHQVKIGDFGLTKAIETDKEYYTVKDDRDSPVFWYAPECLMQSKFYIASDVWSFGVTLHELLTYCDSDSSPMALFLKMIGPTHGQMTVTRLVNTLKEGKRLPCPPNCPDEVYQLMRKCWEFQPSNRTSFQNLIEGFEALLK

With `CS(=O)(=O)c1ccc(-c2cccc3nc(Nc4ccc(N5CCN(CC(=O)NCCCCCCCCNc6ccc7c(c6)C(=O)N(C6CCC(=O)NC6=O)C7=O)CC5)cc4)nn23)cc1` (centres unmarked) [JA213], the DC50 is under 10 nM on GSPT1 and under 35 nM at JAK1.

For `Cc1cnc(Nc2ccc(N3CCN(C)CC3)cc2)nc1Nc1cccc(S(=O)(=O)NC(C)(C)C)c1` [TG101209, reference compound], the IC50 was 48.2 nM in the test with MOLM-13 cells; 7120 nM in the test on MEG-01 cells; 1070 nM with WSU-DLCL2 cells; over 10000 nM in the test on SU-DHL-1 cells; 194 nM in the test with MV4;11 cells; over 10000 nM in the test on NCI-H929 cells. For the same molecule, the IC50 with HL-60 cells is over 10000 nM; in the test on RS4;11 cells, 1840 nM; with Jurkat cells, 550 nM; in the test on MOLT-4 cells, 2500 nM; in the test on CCRF-CEM cells, 3960 nM; in the test on Pfeiffer cells, over 10000 nM. Also, the IC50 was found to be 6110 nM in the test on MM.1S cells; 4780 nM in the test with AMO-1 cells; 529 nM in the test on Kasumi-1 cells; 1300 nM with NOMO-1 cells; 1200 nM in the test on HEL cells.

In the case of `CS(=O)(=O)c1ccc(-c2cccc3nc(Nc4ccc(N5CCN(C(=O)CCNc6cccc7c6C(=O)N(C6CCC(=O)NC6=O)C7=O)CC5)cc4)nn23)cc1` (centres unmarked) [JA-012, 2-(2,6-Dioxo-piperidin-3-yl)-4-[3-(4-{4-[5-(4-methanesulfonyl-phenyl)-[1,2,4]triazolo[1,5-a]pyridin-2-ylamino]-phenyl}-piperazin-1-yl)-3-oxo-propylamino]-isoindole-1,3-dione], the IC50 in the test on RS4;11 cells worked out at 4700 nM.

Take `Cc1ncsc1-c1ccc(CNC(=O)[C@@H]2C[C@@H](O)CN2C(=O)[C@@H](NC(=O)COCCOCCOCCNC(=O)CN2CCN(c3ccc(Nc4nc5cccc(-c6ccc(S(C)(=O)=O)cc6)n5n4)cc3)CC2)C(C)(C)C)cc1` [JA-131, (2S,4R)-1-((S)-2-(tert-Butyl)-17-(4-(4-((5-(4-(methylsulfonyl)phenyl)-[1,2,4]triazolo[1,5-a]pyridin-2-yl)amino)phenyl)piperazin-1-yl)-4,16-dioxo-6,9,12-trioxa-3,15-diazaheptadecanoyl)-4-hydroxy-N-(4-(4-methylthiazol-5-yl)benzyl)pyrrolidine-2-carboxamide]: the IC50 with RS4;11 cells was over 10000 nM.

For `Cc1ncsc1-c1ccc(CNC(=O)[C@@H]2C[C@@H](O)CN2C(=O)[C@@H](NC(=O)CCOCCOCCNC(=O)CN2CCC(n3cc(-c4cnc5cccc(-c6cc(F)c(CN7CCOCC7)c(F)c6)c5n4)cn3)CC2)C(C)(C)C)cc1` [JA-162, (2S,4R)-1-((S)-14-(tert-Butyl)-1-(4-(4-(8-(3,5-difluoro-4-(morpholinomethyl)phenyl)quinoxalin-2-yl)-1H-pyrazol-1-yl)piperidin-1-yl)-2,12-dioxo-6,9-dioxa-3,13-diazapentadecan-15-oyl)-4-hydroxy-N-(4-(4-methylthiazol-5-yl)benzyl)pyrrolidine-2-carboxamide], the IC50 with RS4;11 cells was over 10000 nM.

In the case of `CS(=O)(=O)c1ccc(-c2cccc3nc(Nc4ccc(N5CCN(CC(=O)NCCCCCCNc6cccc7c6C(=O)N(C6CCC(=O)NC6=O)C7=O)CC5)cc4)nn23)cc1` (centres unmarked) [JA-112, N-(6-((2-(2,6-Dioxopiperidin-3-yl)-1,3-dioxoisoindolin-4-yl)amino)hexyl)-2-(4-(4-((5-(4-(methylsulfonyl)phenyl)-[1,2,4]triazolo[1,5-a]pyridin-2-yl)amino)phenyl)piperazin-1-yl)acetamide], the IC50 in the test on RS4;11 cells was over 10000 nM.

As for `Cc1ncsc1-c1ccc(CNC(=O)[C@@H]2C[C@@H](O)CN2C(=O)[C@@H](NC(=O)CCCCCCCCC(=O)N2CCN(c3ccc(Nc4nc5cccc(-c6ccc(S(C)(=O)=O)cc6)n5n4)cc3)CC2)C(C)(C)C)cc1` [JA-067, (2S,4R)-1-((S)-3,3-Dimethyl-2-(10-(4-(4-((5-(4-(methylsulfonyl)phenyl)-[1,2,4]triazolo[1,5-a]pyridin-2-yl)amino)phenyl)piperazin-1-yl)-10-oxodecanamido)butanoyl)-4-hydroxy-N-(4-(4-methylthiazol-5-yl)benzyl)pyrrolidine-2-carboxamide], the IC50 in the test with RS4;11 cells stood at 3860 nM.

In the case of `Cc1cnc(Nc2ccc(N3CCN(C(=O)CNc4cccc5c4C(=O)N(C4CCC(=O)NC4=O)C5=O)CC3)cc2)nc1Nc1cccc(S(=O)(=O)NC(C)(C)C)c1` (centres unmarked) [JA-006, N-(tert-Butyl)-3-((2-((4-(4-((2-(2,6-dioxopiperidin-3-yl)-1,3-dioxoisoindolin-4-yl)glycyl)piperazin-1-yl)phenyl)amino)-5-methylpyrimidin-4-yl)amino)benzenesulfonamide], the IC50 in the test with RS4;11 cells was over 10000 nM.

For `Cc1cnc(Nc2ccc(N3CCN(CC(=O)NCCOCCNc4cccc5c4C(=O)N(C4CCC(=O)NC4=O)C5=O)CC3)cc2)nc1Nc1cccc(S(=O)(=O)NC(C)(C)C)c1` (centres unmarked) [JA-087, 2-(4-(4-((4-((3-(N-(tert-Butyl)sulfamoyl)phenyl)amino)-5-methylpyrimidin-2-yl)amino)phenyl)piperazin-1-yl)-N-(2-(2-((2-(2,6-dioxopiperidin-3-yl)-1,3-dioxoisoindolin-4-yl)amino)ethoxy)ethyl)acetamide], in the test with RS4;11 cells, the IC50 was found to be 143 nM.

For the origin of these results see patent US20230093099A1, “COMPOUNDS AND METHODS OF TREATING CANCERS” (CULLGEN (SHANGHAI), INC., priority 2019, published 2023).
